Reference: patent publication US9259476B2, “Monophosphorylated lipid A derivatives” (WAYNE STATE UNIVERSITY, priority 2009, dated 2016)

Columns and labels:
GM3NPhAc = experiment: ELISA analysis of GM3NPhAc-specific immune responses in immunized mice; assay type: in vivo
Description: FIG. 1 relates to the ELISA analysis of GM3NPhAc-specific immune responses in mice. For ELISA assays, GM3NPhAc-HSA was used as the capture antigen. Goat anti-mouse kappa antibodies were used to detect antibodies bond to the capture antigen. Titers are determined by linear regression analysis and defined as the highest dilution yielding an optical density of 0.2. (a) GM3NPhAc-specific total antibody contents in day −1, 27 and 38 mice sera. Mice were immunized with 1N containing 15 μg of GM3NPhAc. Each line represents the antibody level in serum pooled from a group of five mice. (b) Comparison of GM3NPhAc-specific total antibody titers in day 38 mice sera. Mice were immunized with 1N containing 15, 6 or 3 μg of GM3NPhAc. (c) Comparison of immunological results of conjugates 1, 2 and T-1. 1N: conjugate 1 alone; 1A: conjugate 1+an external adjuvant; 2N: conjugate 2 alone; 2A: conjugate 2+an external adjuvant; T-1N: conjugate T-1 alone. Each dot represents the GM3NPhAc-specific immune response of individual mouse and the black lines represent the average antibody level of a group of five mice.
FIG. 2 relates to the titer analysis of different isotypes of GM3NPhAc-specific antibodies induced by 1N (left) and T-1N (right). […] Titers are determined by linear regression analysis and defined as the highest dilution yielding an optical density of 0.2. […]

3T3 A31 cells = experiment: In vitro glycoengineered expression of GM3NPhAc on cell surface, flow cytometry with mAb 2H3; assay type: cell-based, murine
Description: (§1) FIG. 3 depicts histograms of the glycoengineering of B16F0 cells (a), 3T3 A31 cells (b) and SKMEL-28 cells (c) using ManNPhAc which induces expression of GM3NPhAc on the cell surface. Cells were cultured with 0, 0.01, 0.02 and 0.04 mM of ManNPhAc, stained with mAb 2H3, labeled with FITC-labeled goat anti-mouse kappa antibody, and analyzed by flow cytometry. Data are presented as raw histograms derived from 20,000 events.
(§2) FIG. 4 depicts histograms of the glycoengineering of B16F0 (a) and 3T3 A31 (b) using NeuNPhAc induces expression of GM3NPhAc on the cell surface. Cells were cultured with 0, 0.01, 0.02 and 0.04 mM of NeuNPhAc, stained with mAb 2H3, labeled with FITC-labeled goat anti-mouse kappa antibody, and analyzed by flow cytometry. Data are presented as raw histograms derived from 10,000 events.
(§3) B16F0, 3T3 A31 and SKMEL-28 cells were incubated with 0.01, 0.02 and 0.04 mM of ManNPhAc or NeuNPhAc, harvested at different time, washed with FACS buffer (phosphate-buffered saline (PBS) containing 1% bovine serum albumin), and incubated on ice for 15 minutes with 100 μL of normal mouse serum (NMS) diluted 1:100 in FACS buffer. Cells were washed 3 times with FACS buffer, and incubated for 30 minutes on ice with 100 μL of anti-GM3NPhAc mAb 2H3 (cell culture supernatant) diluted 1:10 in FACS buffer. Cells were washed again (3 times) and incubated for 30 minutes on ice with 1 μg of FITC-conjugated goat anti-mouse kappa antibody diluted in FACS buffer (100 μL). After washing 3 times with FACS buffer, the expression of GM3NPhAc on cell surfaces was evaluated on a Becton Dickenson FACScan flow cytometer. Data are presented as raw histograms derived from 20000 events.

B16F0 cells = experiment: as above; assay type: cell-based, murine
Description: as §1, §2, §3

SKMEL-28 cells = experiment: as above; assay type: cell-based, human
Description: as §1, §3

CCC(=O)OC1C(NC(=O)C[C@@H](CC)OC(=O)CC)[C@H](OCCNC(=O)CCC(=O)NCc2cn(CCOC3OC(CO)[C@@H](O[C@@H]4OC(CO)[C@H](O)C(O[C@]5(C(=O)O)CC(O)[C@@H](NC(=O)Cc6ccccc6)C([C@H](O)[C@H](O)CO)O5)C4O)C(O)C3O)nn2)OC(CO[C@@H]2OC(CO)[C@@H](OP(=O)(O)O)C(OC(=O)CC)C2NC(=O)C[C@@H](CC)OC(=O)CC)[C@H]1O (stereo partly drawn) [Compound T-1]
Isotypes of GM3NPhAc-specific antibodies (IgM, IgG1, IgG2a, IgG3) (GM3NPhAc; day 38 mice sera, conjugate alone): not only GM3NPhAc-specific IgM and IgG1 antibodies, but also much higher titers of IgG3 antibody
GM3NPhAc-specific total antibody immune response (GM3NPhAc; liposome of conjugate alone, no external adjuvant (groups 1N, 2N, T-1N), 15 μg of GM3NPhAc, s.c. day 0, 14, 21, 28): comparable to that induced by 1

[2H]C(C(=O)N[C@@H]1C(O)O[C@H](CO)[C@@H](O)[C@@H]1O)c1ccccc1 (stereo partly drawn) [ManNPhAc]
Cells showing labelling of GM3NPhAc (3T3 A31 cells; 0.01 mM): no 3T3 A31 cell showing labelling of GM3NPhAc
Labelling for GM3NPhAc compared to control group (3T3 A31 cells; 0.01 mM): no substantial labelling
Labelling for GM3NPhAc compared to control group (3T3 A31 cells; 0.02 mM): no substantial labelling
Labelling for GM3NPhAc compared to control group (3T3 A31 cells; 0.04 mM): started to show labelling
Cells showing labelling of GM3NPhAc (B16F0 cells; 0.01 mM): only partial B16F0 cell
Expression of GM3NPhAc on cell surface (B16F0 cells; 0.01 mM, 72 hours): significant expression of GM3NPhAc
Concentration dependence of GM3NPhAc expression (B16F0 cells; 0.01, 0.02, 0.04 mM, 72 hours): dependent on ManNPhAc concentrations
Cells showing significant GM3NPhAc labelling above the control group (SKMEL-28 cells; 0.01 mM, 96 hours): 100%
Expression of GM3NPhAc on cell surface (SKMEL-28 cells; 0.02 mM, 96 hours): further increased
Expression of GM3NPhAc on cell surface (SKMEL-28 cells; 0.04 mM, 96 hours): further increased
Concentration at which a plateau level of GM3NPhAc expression was reached (SKMEL-28 cells; data not shown): ≥ 0.04 mM

O=C(Cc1ccccc1)N[C@H]1[C@H]([C@H](O)[C@H](O)CO)OC(O)(C(=O)O)C[C@@H]1O (stereo partly drawn) [NeuNPhAc]
Utilization to express GM3NPhAc on cell surface (3T3 A31 cells; 0.01, 0.02, 0.04 mM): much more efficiently to express GM3NPhAc, even better than B16F0 cancer cells
Expression of GM3NPhAc on cell surface relative to ManNPhAc (B16F0 cells; 72 hours, same concentrations (0.01, 0.02, 0.04 mM)): more significant expression of GM3NPhAc than that incubated with ManNPhAc
